Reference: patent US20200206198A1, “CFTR CHANNEL ACTIVATOR FOR USE IN THE TREATMENT AND/OR PREVENTION OF GLUTEN SENSITIVITY CONDITIONS” (priority 2017, published 2020)
Where a SMILES comes first, the peptide text is derived from it. [ ]: non-standard residue; d: D form. The star is where a group is joined. DON = [N-]=[N+]=CC(=O)CC[C@H](N)C(=O)O; Cbz = O=C(OCc1ccccc1)*

Assays:
[1] = system: recombinant human NBD1 (rhNBD1); test: Surface plasmon resonance peptide-protein interaction; assay type: binding; conditions: rhNBD1 immobilized on chip, different peptide concentrations
Method: Peptide-protein interactions were studied using a Biacore™ T100 (GE Healthcare) instrument. hrNBD1 domain or the indicated biotinylated peptides were immobilized by thiol coupling on a CMS (series S) sensor chip to a final density of 2000 resonance units (RU) or by biotin-streptavidin capture on a SA (series S) sensor chip to a final density of 250 RU, respectively. A flow cell with no immobilized protein or peptide was used as control. Binding analysis was carried out at 20° C. in a running buffer consisting of 10 mM HEPES, pH 7.4, 150 mM NaCl, 0.05% (v/v) Tween-20, 2 mM ATP, 5 mM MgCl2, 1 mM DTT applying a flow rate of 20 μl/min. For each experiment a Biacore™ method program was used. It included a series of three start up injections (running buffer), zero control (running buffer) and different concentrations of ligand. […] Each sensorgram (time-course of the surface plasmon resonance signal) was corrected for the response obtained in the control flow cell and normalized to baseline. Data were analysed using the 2.0.3 BIAevaluation software (GE Healthcare). At least three independent experiments for each analysis were performed.
FIG. 2: a, Protein-Protein docking and Molecular Dynamics of P31-43 (violet) bound to NBD1 (orange). Left side: general view of P31-43 and NBD1 interaction. Upper right: detailed interaction pattern, highlighting the most important amino acids. Lower right: in silico NBD1/P31-43 complex compared to the original crystallographic positions of Tip 401 and ATP. b, Graphical view of the in silico sampling percentage of P31-43 against NBD1/NBD2 (left 10 panel), and of P31-43/4QA (4QA) against NBD1 (right panel). c-d, Surface plasmon resonance (SPR) analysis of rhNBD1 binding to P31-43 and P57-68 biotinylated peptides immobilized on SA sensor chip (c) and of increasing concentrations of P31-43 and P57-68 peptides 15 on rhNBD1 covalently bound to the CMS sensor chip (d).

TG2 = molecular target: T1, TG2 (Homo sapiens, UniProt P21980); test: TG2 interaction and TG2 activity in Caco-2 cells; assay type: cell-based; conditions: Caco-2 cells
T1 construct: Immunoprecipitations of endogenous proteins were performed on 500 μg of lysates from Caco-2 cells; host or cells: Caco-2
T1 sequence (P21980 1-687): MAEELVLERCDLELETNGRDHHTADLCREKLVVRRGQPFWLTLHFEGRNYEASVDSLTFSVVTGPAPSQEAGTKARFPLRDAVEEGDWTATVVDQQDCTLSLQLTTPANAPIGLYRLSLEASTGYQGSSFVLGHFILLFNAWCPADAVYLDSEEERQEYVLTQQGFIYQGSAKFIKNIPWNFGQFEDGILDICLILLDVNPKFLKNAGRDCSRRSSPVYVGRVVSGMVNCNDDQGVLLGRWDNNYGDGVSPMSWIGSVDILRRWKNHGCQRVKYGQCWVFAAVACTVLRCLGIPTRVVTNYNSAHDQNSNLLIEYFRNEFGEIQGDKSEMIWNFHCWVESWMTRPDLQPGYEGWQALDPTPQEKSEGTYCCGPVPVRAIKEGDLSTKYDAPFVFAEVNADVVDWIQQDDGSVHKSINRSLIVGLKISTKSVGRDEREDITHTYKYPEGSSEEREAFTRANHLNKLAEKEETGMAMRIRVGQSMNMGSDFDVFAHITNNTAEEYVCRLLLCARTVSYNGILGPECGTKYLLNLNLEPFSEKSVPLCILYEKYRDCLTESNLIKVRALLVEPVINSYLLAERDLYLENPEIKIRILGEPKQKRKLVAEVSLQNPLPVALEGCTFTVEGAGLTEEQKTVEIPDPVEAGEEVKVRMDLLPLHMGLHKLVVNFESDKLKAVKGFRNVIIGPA
Method: Human colon adenocarcinoma-derived Caco-2 and T84 cells were obtained from the ATCC. Cells were maintained in T25 flask in Modified Eagle Medium (MEM) for Caco-2, or Ham's F12+DMEM (1:1) for T84, supplemented with 10% fetal bovine serum (FBS), 2 mM Glutamine+1% Non Essential Amino Acids (NEAA) and the antibiotics penicillin\streptomycin (100 units/ml) (all reagents from Lonza) (Luciani, A., et al. 2010. Cells were grown in Transwells (Corning, 3470 or 3460) under the normal condition (Luciani, A., et al. 2012). Briefly, 8×10^4 or 5×10^5 cells were seeded in 6.5-mm diameter or 12-mm diameter, respectively, and grown until the RT reached 800 to 1,200 Ω·cm2. Transwells with a pore size of 0.4 μm were used. Medium in both the apical and basolateral chambers was changed every other day. Cells were treated with 20 μg/ml of either α-gliadin peptide P31-43 or […] or scrambled PGAV or modified P31-43 either biotin-tagged or not, for different time point (from 1 h short challenge up to 24 h). Cells were also treated with 50 or 100 μg/ml of P57-68 or PGAV peptides for 3 h. Caco-2 or T84 cells were also treated with: CFTR potentiators VX-770 (10 μM) or VX-532 (20 μM) (Selleck chemicals) or Genistein (10 μM) (Sigma-Aldrich) or in presence or absence of CFTR inhibitor172 (CFTRinh172, 20 μM) or 3-methyl-adenine (3-MA, 20 μM) (Calbiochem), Z-DON (20 nM, Zedira) or BAPTA-AM (10 μM, Calbiochem).
The whole lysate or membrane fraction proteins of cell lines and mice intestine homogenates were obtained from treated and untreated cells or mice as described. The equal amount of protein were resolved by SDS-PAGE gel and blotted with antibodies against: SQSTM1, (Sigma Aldrich, 108k4767) 1:1000, PPARγ (Santa Cruz Biotechnology, sc7273) 1:500, BECN1 (Abcam, ab58878) 1:1000, CFTR clone M3A7 (Abcam, ab4067) 1:500, phospho-ERK1/2 (php42/44, Cell Signaling Technology, #91101) 1:1000, UVRAG (Santa Cruz Biotechnology sc8215) 1:1000, NHERF-1 (BD, 611161) 1:1000, EZRIN (BD, 610603) 1:1000, hVps34 (SigmaV9764) 1:300, biotin (Abcam, ab1227) 1:2000, PKAr2a (BD, 610625) 1:500, Ubiquitin (Cell Signaling clone P4D1, #3936) 1:1000, CHIP (Calbiochem PC711) 1:500, Caspase-1 p10 (M-20) (Santa Cruz Biotechnology, sc-514) 1:200, NLRP3 (Abcam, ab4207), 1:500, IDO1 (monoclonal; cv152) 1:1000^[80], used as primary antibodies. Normalization was performed by probing the membrane with anti-β-actin (Cell Signaling, #4970) 1:1000, anti-Gapdh (Sigma-Aldrich, G8795) 1:1000 and anti-flottilin (Abcam ab15148) 1:1000 antibodies. Immunoprecipitations of endogenous proteins were performed on 500 μg of lysates from Caco-2 cells. The proteins were incubated for 12-18 h at 4° C. with 10 ug\ml of specific antibody followed by the addition of Protein A/G-agarose beads for 4 h at 4° C. The beads were then washed three times with lysis buffer and Laemmli's sample buffer was added to the samples. The membranes were then blotted with: CFTR clone CF3 (Abcam, ab2784) 1:1000, TG2 (clone CUB7402; NeoMarkers) 1:1000, CHIP (Calbiochem PC711) 1:500, Ubiquitin (Cell Signaling clone P4D1 3936), isopeptide (Abcam 422) 1:1000, PKAR2 (BD 610625) 1:500.
For detection of complex with biotnylated-P31-43 or immune-complex of glutamime-lysine bonds, the beads were resolved in non-reducing and non-denaturating conditions, and then blotted with Streptavidin-HRP (Sigma 52438) 1:3000 or anti-biotin (Abcam ab2103) 1:2500 and anti-isopeptide (Abcam 422) 1:1000.
TG2 enzymatic activity in Caco-2, treated as described above, was detected: 1) by incubating unfixed sections with biotin-mono-dansylcadaverine (MDC, 10 mM, Molecular Probe) for 1 h at room temperature and then stained with Alexa-fluor488-Streptavidin, as previously described (JI2008/2009) or 2) or by incorporation of 5(biotinamido)pentylamines (BAP) into protein substrates. For BAP-incorporation, 2 mM BAP (Soltec Ventures, B110) were directly added into the medium together with the indicated treatments. […]

CFTR [2] = molecular target: T2, CFTR (Homo sapiens, UniProt P13569); test: CFTR channel function in intestinal epithelial cells (forskolin-induced Isc in Ussing chambers; SPQ iodide efflux); assay type: cell-based; conditions: 20 μg/ml peptide; intestinal epithelial cells (Caco-2, T84)
T2 construct: Immunoprecipitations of endogenous proteins were performed on 500 μg of lysates from Caco-2 cells; host or cells: Caco-2, T84
T2 sequence (P13569 whole entry): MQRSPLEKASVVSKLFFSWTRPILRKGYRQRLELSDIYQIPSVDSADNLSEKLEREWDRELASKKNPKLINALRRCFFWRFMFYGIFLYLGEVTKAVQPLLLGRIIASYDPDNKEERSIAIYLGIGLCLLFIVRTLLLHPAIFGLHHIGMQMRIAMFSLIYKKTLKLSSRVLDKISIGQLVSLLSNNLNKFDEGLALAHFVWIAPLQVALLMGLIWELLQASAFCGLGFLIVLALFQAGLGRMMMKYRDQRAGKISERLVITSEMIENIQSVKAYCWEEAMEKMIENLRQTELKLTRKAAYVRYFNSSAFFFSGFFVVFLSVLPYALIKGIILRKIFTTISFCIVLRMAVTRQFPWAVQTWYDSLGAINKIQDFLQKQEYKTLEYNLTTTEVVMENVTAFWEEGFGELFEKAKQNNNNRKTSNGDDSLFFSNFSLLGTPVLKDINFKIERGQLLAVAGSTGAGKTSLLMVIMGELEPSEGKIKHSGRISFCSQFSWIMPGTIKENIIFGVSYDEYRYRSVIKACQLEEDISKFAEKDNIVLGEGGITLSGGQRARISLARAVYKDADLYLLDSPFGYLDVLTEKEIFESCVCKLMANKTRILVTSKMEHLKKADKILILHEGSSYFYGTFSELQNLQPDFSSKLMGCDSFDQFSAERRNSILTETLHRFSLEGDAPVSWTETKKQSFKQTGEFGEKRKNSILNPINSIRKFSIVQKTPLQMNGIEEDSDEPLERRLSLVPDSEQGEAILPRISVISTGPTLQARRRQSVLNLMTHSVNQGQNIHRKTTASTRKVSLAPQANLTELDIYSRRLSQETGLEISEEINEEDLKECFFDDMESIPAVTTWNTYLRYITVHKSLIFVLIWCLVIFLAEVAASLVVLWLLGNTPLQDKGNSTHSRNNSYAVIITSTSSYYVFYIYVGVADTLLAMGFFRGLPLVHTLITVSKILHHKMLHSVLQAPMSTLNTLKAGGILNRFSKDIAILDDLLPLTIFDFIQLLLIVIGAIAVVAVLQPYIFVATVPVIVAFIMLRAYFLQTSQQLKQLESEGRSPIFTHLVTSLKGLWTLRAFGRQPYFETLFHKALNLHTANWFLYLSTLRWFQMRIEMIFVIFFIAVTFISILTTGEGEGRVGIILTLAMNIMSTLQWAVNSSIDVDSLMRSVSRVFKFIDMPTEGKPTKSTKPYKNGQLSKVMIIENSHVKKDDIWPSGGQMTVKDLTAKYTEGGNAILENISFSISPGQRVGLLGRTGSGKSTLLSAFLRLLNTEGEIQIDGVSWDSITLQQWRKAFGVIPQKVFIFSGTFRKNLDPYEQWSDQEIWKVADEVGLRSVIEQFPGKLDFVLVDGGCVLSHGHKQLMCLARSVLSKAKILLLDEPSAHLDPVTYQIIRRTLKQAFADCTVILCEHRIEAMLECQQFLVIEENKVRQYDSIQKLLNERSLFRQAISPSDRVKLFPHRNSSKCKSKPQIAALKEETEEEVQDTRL
Method: Human colon adenocarcinoma-derived Caco-2 and T84 cells (Barone, M. V. et al. 2014; Luciani, A. et al. 2010) were obtained from the ATCC. Cells were maintained in T25 flask in Modified Eagle Medium (MEM) for Caco-2, or Ham's F12+DMEM (1:1) for T84, supplemented with 10% fetal bovine serum (FBS), 2 mM Glutamine+1% Non Essential Amino Acids (NEAA) and the antibiotics penicillin\streptomycin (100 units/ml) (all reagents from Lonza). Caco-2 cells were grown in Transwells (Corning, 3470 or 3460) under the normal condition. Briefly, 8×10^4 or 5×10^5 cells were seeded in 6.5-mm diameter or 12-mm diameter, respectively, and grown until the RT reached 800 to 1,200 Ω·cm^2. Transwells with a pore size of 0.4 μm were used. Medium in both the apical and baso lateral chambers was changed every other day. Cells were treated with 20 μg/ml of either with the α-gliadin peptide comprising the P31-43 amino acid sequence of α-gliadin LGQQQPFPPQQPY (SEQ ID 1) (below referred to as P31-43), which is known to induce an enterocyte stress response (Meresse, B. et al.2009; Barone, M. V. et al. 2014; Luciani, A. et al. 2010), the T-cell activating α-gliadin peptide comprising the P57-68 amino acid sequence of α-gliadin (QLQPFPQPQLPY SEQ ID 2)) (below referred to as P57-68) (Maiuri, L., et al. 2003; Meresse, B. et al.2009; 30 Barone, M. V. et al. 2014), or the scrambled GAVAAVGVVAGA (SEQ ID 3) control peptide (below referred to as PGAV), or with different modified P31-43, either biotin-tagged or not, for different time points (from 1 h short challenge up to 24 h). Cells were also treated with 50 or 100 5 μg/ml of P57-68 or PGAV peptides for 3 h.
Caco-2 or T84 cells were also treated with: CFTR potentiators VX-770 (Ivacaftor) (10 μM) or VX-532 (20 μM) (Selleck chemicals) or Genistein (10 μM) (Verkman, A. S. et al. 2005; Jih, K. Y. et al. 2013) (Sigma-Aldrich) or in presence or absence of CFTR inhibitor172 (CFTRinh172, 20 μM).
Human colon adenocarcinoma-derived Caco-2 and T84 cells were obtained from the ATCC. Cells were maintained in T25 flask in Modified Eagle Medium (MEM) for Caco-2, or Ham's F12+DMEM (1:1) for T84, supplemented with 10% fetal bovine serum (FBS), 2 mM Glutamine+1% Non Essential Amino Acids (NEAA) and the antibiotics penicillin\streptomycin (100 units/ml) (all reagents from Lonza) (Luciani, A., et al. 2010. Cells were grown in Transwells (Corning, 3470 or 3460) under the normal condition (Luciani, A., et al. 2012). Briefly, 8×10^4 or 5×10^5 cells were seeded in 6.5-mm diameter or 12-mm diameter, respectively, and grown until the RT reached 800 to 1,200 Ω·cm2. Transwells with a pore size of 0.4 μm were used. Medium in both the apical and basolateral chambers was changed every other day. […]

CFTR [3] = molecular target: T2, CFTR; test: Co-immunoprecipitation of biotinylated peptides with CFTR in Caco-2 cells; assay type: cell-based; conditions: 1 h with biotinylated peptides
Method: Human colon adenocarcinoma-derived Caco-2 and T84 cells were obtained from the ATCC. Cells were maintained in T25 flask in Modified Eagle Medium (MEM) for Caco-2, or Ham's F12+DMEM (1:1) for T84, supplemented with 10% fetal bovine serum (FBS), 2 mM Glutamine+1% Non Essential Amino Acids (NEAA) and the antibiotics penicillin\streptomycin (100 units/ml) (all reagents from Lonza) (Luciani, A., et al. 2010. Cells were grown in Transwells (Corning, 3470 or 3460) under the normal condition (Luciani, A., et al. 2012). Briefly, 8×10^4 or 5×10^5 cells were seeded in 6.5-mm diameter or 12-mm diameter, respectively, and grown until the RT reached 800 to 1,200 Ω·cm2. Transwells with a pore size of 0.4 μm were used. Medium in both the apical and basolateral chambers was changed every other day. […] Cells were also treated with 50 or 100 μg/ml of P57-68 or PGAV peptides for 3 h. Caco-2 or T84 cells were also treated with: CFTR potentiators VX-770 (10 μM) or VX-532 (20 μM) (Selleck chemicals) or Genistein (10 μM) (Sigma-Aldrich) or in presence or absence of CFTR inhibitor172 (CFTRinh172, 20 μM) or 3-methyl-adenine (3-MA, 20 μM) (Calbiochem), Z-DON (20 nM, Zedira) or BAPTA-AM (10 μM, Calbiochem).
The separation of endosomal fractions was performed as described^9 from treated and untreated cells. Protein of endosomal fraction were resolved by SDS-Page and blotted with primary antibodies against Rab-5(Abcam 18211) 1:500, Rab-7(Abcam 77993) 1:500, EEA-1 (Abcam 2900) 1:500, TG2 or CFTR. EEA-1 was used as early endosome marker. For detection of complex with biotnylated-P31-43, the beads were resolved in non-reducing and non-denaturating conditions, and then blotted with Streptavidin-HRP (Sigma S2438) 1:3000 or anti-biotin (Abcam ab2103) 1:2500.

| Molecule | SPR signal on immobilized rhNBD1 [1] | effect on P31-43-induced interaction of TG2 and CFTR (TG2) | reduction of CFTR channel function in response to forskolin (CFTR [2]) | interaction (co-immunoprecipitation) with CFTR (CFTR [3]) | interaction (co-immunoprecipitation) with CFTR (CFTR [3]; listed as Q4A) |
| --- | --- | --- | --- | --- | --- |
| P57-68: T-cell activating α-gliadin peptide QLQPFPQPQLPY (SEQ ID 2) (P57-68 sequence of alpha-gliadin) | failed to induce any signal | – | – | – | – |
| COC(=O)[C@H](CC(C)C)NC(=O)[C@@H]1CCCN1C(=O)[C@@H](NC(=O)[C@H](CCC(=O)C=[N+]=[N-])NC(=O)OCc1ccccc1)C(C)C [Z-DON] (Cbz-[DON]VPL-OMe) | – | prevented | – | – | – |
| 4QA: P31-43 with glutamines at residues 4, 5, 10 and 11 substituted with alanines, LGQAAPFPPAAPY (SEQ ID 4) (P31-43 sequence of alpha gliadin with glutamine residues at positions 4, 5, 10 and 11 substituted with alanines) | failed to interact with NBD1 | – | failed to interact with CFTR and to inhibit its function | failed to interact with CFTR | did not co-immunoprecipitate with CFTR |
| CC(=O)OCOC(=O)CN(CC(=O)OCOC(C)=O)c1ccccc1OCCOc1ccccc1N(CC(=O)OCOC(C)=O)CC(=O)OCOC(C)=O [BAPTA-AM] | – | prevented | – | – | – |
